In brackets after ≈: the same amount, converted by molar mass.

The test system of one data set is KB. Put plainly: Cytotoxicity MTT assay, KB. In kind it is cell-based. The following applies: Homo sapiens, KB; read-out: Cytotoxicity IC50 KB. The method, then: (§1) Selected molecules were tested for cytotoxicity (IC50) in cancer and healthy cells via a MTT colorimetric assay.
(§2) Each cell was cultured in recommended medium by ATCC, and the IC50 data were obtained with each cell line.
On the technique in general: Formazan colour is commonly taken as a measure of viable cells.

The test system of a further data set is C. difficile spores. Put plainly: Spore viability testing. In kind it is cell-based. The following applies: x2 MIC, 24 hours.
A further data set deals with LoVo. Put plainly: Cytotoxicity MTT assay, LoVo. It counts as cell-based. The following applies: Homo sapiens, LoVo; read-out: Cytotoxicity IC50 LoVo. The protocol:
as §1, §2

The subject of the next data set is C. difficile ATCC43596. Put plainly: Minimum inhibitory concentration assay.
In a further data set the test system is SK-OV-3. Put plainly: Cytotoxicity MTT assay, SK-OV-3. In kind it is cell-based. Particulars: Homo sapiens, SK-OV-3; read-out: Cytotoxicity IC50 SK-OV-3. The method, then:
as §1, §2

A short description of a further data set: Water solubility. In kind it is physicochemical.

Consider `NC[C@H]1O[C@@H](O[C@H]([C@H]2O[C@@H](n3ccc(=O)[nH]c3=O)[C@H](O)[C@@H]2O)[C@H](NCCCC(=O)NCc2ccc(N3CCC(Oc4ccc(C(F)(F)F)cc4)CC3)cc2)C(N)=O)[C@H](O)[C@@H]1O` [Compound 11], for which the IC50 turned out to be 7090 nM in the data set on KB, 220 nM with LoVo and 2850 nM with SK-OV-3. In the data set on C. difficile spores, the “Effect on viability of C. difficile spores (CFU)” value is reported as “caused loss of viability of C. difficile spores”. Besides, in the data set with C. difficile ATCC43596, the Anti-C. difficile activity result is given as “display anti-C. difficile activity”. Moreover, the MIC with C. difficile ATCC43596 (Clostridioides difficile, ATCC43596, 48 h, read-out: C. difficile ATCC43596 MIC) turned out to be 3.25 µg/mL (≈ 0.00375 mM). Further, the “Antibacterial activity against C. difficile” value in the data set with C. difficile ATCC43596 (FIG. 4) was “displayed antibacterial activity”. In the data set “Water solubility” (relative to 10), the “Water solubility, times greater than 10” value is 200 times. Moreover, in “Water solubility” (water), the concentration in solution (solubility) was 22 mg/mL (≈ 25.4 mM).

By IC50 is commonly meant the concentration that inhibits the measured activity by half. Broadly, the MIC is the lowest concentration that inhibits growth of the organism. One may read the solubility as the dissolved amount per volume that the medium holds. A high value points to much dissolved substance.
